system: Onchocerca gutturosa Adult Male Worms; assay: Onchocerciasis in vitro screening model, worm motility score; format: cell-based; conditions: Onchocerca gutturosa; Table 1 O. gutturosa; levels A/B/C; motility or MTT readout not specified; read-out: O. gutturosa activity level (IC50 or MED)

IC50 | Structure (SMILES)
500 to 5000 nM | Cc1cccnc1Nc1nc(-c2ccc3c(n2)CN(CC2CC2)C3)ns1 [Compound 114, 3-(6-(cyclo-propylmethyl)-6,7-dihydro-5H-pyrrolo[3,4-b]pyridin-2-yl)-N-(3-methylpyridin-2-yl)-1,2,4-thiadiazol-5-amine]
200 to 500 nM | CN(C)c1cccnc1Nc1nc(-c2ncccc2OC2CC2)ns1 [Compound 117, N2-(3-(3-cycloprop-oxypyridin-2-yl)-1,2,4-thiadiazol-5-yl)-N3,N3-dimethyl-pyridine-2,3-diamine]
< 200 nM | CC(C)Oc1ccc(-c2nsc(Nc3cc(C(F)(F)F)c(C(C)C)cn3)n2)nc1 [Compound 119, 3-(5-isopropoxy-pyridin-2-yl)-N-(5-isopropyl-4-(trifluoromethyl)pyridin-2-yl)-1,2,4-thiadiazol-5-amine]
200 to 500 nM | CNc1cccnc1Nc1nc(-c2ccc(OC3CCN(C4CC4)CC3(F)F)cn2)ns1 (centres unmarked) [Compound 122, N2-(3-(5-(1-cyclopropyl-3,3-difluoropiperidin-4-yloxy)pyridin-2-yl)-1,2,4-thiadiazol-5-yl)-N3-methyl-pyridine-2,3-diamine]
< 200 nM | CN(C)c1cccnc1Nc1nc(-c2ccc(OC3CCN(C4CC4)CC3(F)F)cn2)ns1 (centres unmarked) [Compound 123, N2-(3-(5-(1-cyclopropyl-3,3-difluoro-piperidin-4-yloxy)pyridin-2-yl)-1,2,4-thiadiazol-5-yl)-N3,N3-dimethyl-pyridine-2,3-diamine]
500 to 5000 nM | COc1cnc(-c2nsc(Nc3ncccc3C)n2)cn1 [Compound 125, 3-(5-methoxy-pyrazin-2-yl)-N-(3-methyl-pyridin-2-yl)-1,2,4-thiadiazol-5-amine]
500 to 5000 nM | CC(C)Oc1cnc(-c2nsc(Nc3ncccc3N(C)C)n2)cn1 [Compound 126, N2-(3-(5-iso-propoxypyrazin-2-yl)-1,2,4-thiadiazol-5-yl)-N3,N3-dimethylpyridine-2,3-diamine]
500 to 5000 nM | CC(C)c1cccnc1Nc1nc(-c2ccc(F)cn2)ns1 [Compound 128, 3-(5-fluoro-pyridin-2-yl)-N-(3-isopropyl-pyridin-2-yl)-1,2,4-thiadiazol-5-amine]
500 to 5000 nM | COc1cccnc1Nc1nc(-c2ccc(OC3CCN(C4CC4)CC3(F)F)cn2)ns1 (centres unmarked) [Compound 129, 3-(5-(1-cyclopropyl-3,3-difluoro-piperidin-4-yloxy)pyridin-2-yl)-N-(3-methoxypyridin-2-yl)-1,2,4-thiadiazol-5-amine]
500 to 5000 nM | CC(C)Oc1ccc(-c2nsc(N(C)c3ncccc3C(C)C)n2)nc1 [Compound 130, 3-(5-isopropoxy-pyridin-2-yl)-N-(3-isopropy-lpyridin-2-yl)-N-methyl-1,2,4-thiadiazol-5-amine]
< 200 nM | CCN(c1nc(-c2ccc(OC(C)C)cn2)ns1)c1ncccc1C [Compound 131, N-ethyl-3-(5-isopropoxy-pyridin-2-yl)-N-(3-methyl-pyridin-2-yl)-1,2,4-thiadiazol-5-amine]
< 200 nM | CC(C)Oc1ccc(-c2nnc(Nc3ncccc3N(C)C)o2)nc1 [Compound 132, N2-(5-(5-isopropoxy-pyridin-2-yl)-1,3,4-oxadiazol-2-yl)-N3,N3-dimethyl-pyridine-2,3-diamine]
500 to 5000 nM | CC(C)Oc1ccc(-c2noc(Nc3ncccc3N(C)C)n2)nc1 [Compound 133, N2-(3-(5-is-opropoxy-pyridin-2-yl)-1,2,4-oxadiazol-5-yl)-N3,N3-dimethyl-pyridine-2,3-diamine]
500 to 5000 nM | Cc1cccnc1N(c1nc(-c2ccc(OC(C)C)cn2)ns1)C(C)C [Compound 138, 3-(5-isoprop-oxypyridin-2-yl)-N-isopropyl-N-(3-methylpyridin-2-yl)-1,2,4-thiadiazol-5-amine]
500 to 5000 nM | CC(C)Oc1ccc(-c2nsc(N(C)c3ncccc3N(C)C)n2)nc1 [Compound 139, N2-(3-(5-isoprop-oxypyridin-2-yl)-1,2,4-thiadiazol-5-yl)-N2,N3,N3-trimethylpyridine-2,3-diamine]
500 to 5000 nM | CC(C)Oc1ccc(-c2n[nH]c(Nc3ncccc3N(C)C)n2)nc1 [Compound 140, N2-(3-(5-isoprop-oxypyridin-2-yl)-1H-1,2,4-triazol-5-yl)-N3,N3-dimethyl-pyridine-2,3-diamine]
500 to 5000 nM | CN1CC(S(=O)(=O)c2ccc(-c3nsc(Nc4ncccc4N(C)C)n3)nc2)C1 [Compound 141, N3,N3-dimethyl-N2-(3-(5-(1-methylazetidin-3-ylsulfonyl)pyridin-2-yl)-1,2,4-thiadiazol-5-yl)pyridine-2,3-diamine]
500 to 5000 nM | CN1CCC(S(=O)(=O)c2ccc(-c3nsc(Nc4ncccc4N(C)C)n3)nc2)CC1 [Compound 142, N3,N3-dimethyl-N2-(3-(5-(1-methylpiperidin-4-ylsulfonyl)pyridin-2-yl)-1,2,4-thiadiazol-5-yl)pyridine-2,3-diamine]
500 to 5000 nM | CC(C)c1cnc(Nc2nc(-c3ccccn3)n(C)n2)cc1C(F)(F)F [Compound 143, 5-isopropyl-N-(1-methyl-5-(pyridin-2-yl)-1H-1,2,4-triazol-3-yl)-4-(trifluoromethyl) pyridin-2-amine]
500 to 5000 nM | CN(C)c1cccnc1Nc1nc(-c2ccc(S(=O)(=O)C3CCN(C4CC4)CC3)cn2)ns1 [Compound 145, N2-(3-(5-(1-cyclopropyl-piperidin-4-ylsulfonyl)pyridin-2-yl)-1,2,4-thiadiazol-5-yl)-N3,N3-dimethyl-pyridine-2,3-diamine]
500 to 5000 nM | CC(C)Oc1ccnc(-c2nc(Nc3cc(C(F)(F)F)c(C(C)C)cn3)nn2C)c1 [Compound 146, N-(5-(4-isoprop-oxypyridin-2-yl)-1-methyl-1H-1,2,4-triazol-3-yl)-5-isopropyl-4-(trifluoro-methyl) pyridin-2-amine]
500 to 5000 nM | CC(C)Oc1cc(-c2nsc(Nc3ncccc3N(C)C)n2)ncc1C(F)(F)F [Compound 147, N2-(3-(4-isoprop-oxy-5-(trifluoromethyl)pyridin-2-yl)-1,2,4-thiadiazol-5-yl)-N3,N3-dimethyl-pyridine-2,3-diamine]
500 to 5000 nM | CC(C)Oc1cccnc1-c1nc(Nc2cc(C(F)(F)F)c(C(C)C)cn2)nn1C [Compound 148, N-(5-(3-isoprop-oxypyridin-2-yl)-1-methyl-1H-1,2,4-triazol-3-yl)-5-isopropyl-4-(trifluoromethyl) pyridin-2-amine]
< 200 nM | Cc1cccnc1Nc1nc(-c2cc(OC3CC3)c(C(F)(F)F)cn2)ns1 [Compound 151, 3-(4-cyclo-propoxy-5-(trifluoromethyl)pyridin-2-yl)-N-(3-methylpyridin-2-yl)-1,2,4-thiadiazol-5-amine]

Structure (SMILES) | IC50
CC(C)Oc1ccc(-c2nsc(Nc3ncccc3C(C)C)n2)nc1 [Compound 115, 3-(5-isopropoxy-pyridin-2-yl)-N-(3-isopropyl-pyridin-2-yl)-1,2,4-thiadiazol-5-amine] | < 200 nM
CC(C)Oc1ccc(-c2nsc(Nc3ncccc3N3CCCC3)n2)nc1 [Compound 116, 3-(5-isopropoxy-pyridin-2-yl)-N-(3-(pyrrolidin-1-yl)pyridin-2-yl)-1,2,4-thiadiazol-5-amine] | < 200 nM
CN(C)c1cccnc1Nc1nc(-c2ccc(OCC3CC3)cn2)ns1 [Compound 118, N2-(3-(5-(cyclopropyl-methoxy)pyridin-2-yl)-1,2,4-thiadiazol-5-yl)-N3,N3-dimethyl-pyridine-2,3-diamine] | < 200 nM
CN(C)c1cccnc1Nc1nc(-c2ccc(OC(F)F)cn2)ns1 [Compound 120, N2-(3-(5-(difluoromethoxy)pyridin-2-yl)-1,2,4-thiadiazol-5-yl)-N3,N3-dimethyl-pyridine-2,3-diamine] | 500 to 5000 nM
CN(C)c1cccnc1Nc1nc(-c2ccc(F)cn2)ns1 [Compound 121, N2-(3-(5-fluoro-pyridin-2-yl)-1,2,4-thiadiazol-5-yl)-N3,N3-dimethylpyridine-2,3-diamine] | < 200 nM
Cc1cccnc1Nc1nc(-c2cnc(OC(C)C)cn2)ns1 [Compound 124, 3-(5-isopropoxy-pyrazin-2-yl)-N-(3-methyl-pyridin-2-yl)-1,2,4-thiadiazol-5-amine] | 200 to 500 nM
CC(C)c1cccnc1Nc1nc(-c2ccc(OC(F)F)cn2)ns1 [Compound 127, 3-(5-(difluoro-methoxy)pyridin-2-yl)-N-(3-isopropyl-pyridin-2-yl)-1,2,4-thiadiazol-5-amine] | < 200 nM
COc1cccnc1Nc1nc(-c2cc(C(F)(F)F)c(OC3CC3)cn2)ns1 [Compound 134, 3-(5-cyclo-propoxy-4-(trifluoromethyl)pyridin-2-yl)-N-(3-methoxy-pyridin-2-yl)-1,2,4-thiadiazol-5-amine] | 500 to 5000 nM
Cc1nccnc1Nc1nc(-c2ccc(OC(C)C)cn2)ns1 [Compound 135, 3-(5-isoprop-oxypyridin-2-yl)-N-(3-methyl-pyrazin-2-yl)-1,2,4-thia-diazol-5-amine] | < 200 nM
CN(C)c1cccnc1Nc1nc(-c2ccc(OC3CC(F)(F)C3)cn2)ns1 [Compound 136, N2-(3-(5-(3,3-difluorocyclo-butoxy)pyridin-2-yl)-1,2,4-thiadiazol-5-yl)-N3,N3-dimethyl-pyridine-2,3-diamine] | 500 to 5000 nM
COc1cccnc1Nc1nc(-c2ccc(OC3CC(F)(F)C3)cn2)ns1 [Compound 137, 3-(5-(3,3-difluorocyclo-butoxy)pyridin-2-yl)-N-(3-methoxypyridin-2-yl)-1,2,4-thiadiazol-5-amine] | 500 to 5000 nM
CC(C)Oc1ccc(-c2nsc(Nc3nccnc3N(C)C)n2)nc1 [Compound 144, N2-(3-(5-isoprop-oxypyridin-2-yl)-1,2,4-thiadiazol-5-yl)-N3,N3-dimethyl-pyrazine-2,3-diamine] | 200 to 500 nM
CC(C)COc1ccc(-c2nsc(Nc3ncccc3N(C)C)n2)nc1 [Compound 149, N2-(3-(5-isobutoxy-pyridin-2-yl)-1,2,4-thiadiazol-5-yl)-N3,N3-dimethyl-pyridine-2,3-diamine] | < 200 nM
CC(C)COc1cnc(-c2nsc(Nc3ncccc3N(C)C)n2)cn1 [Compound 150, N2-(3-(5-isobutoxy-pyrazin-2-yl)-1,2,4-thiadiazol-5-yl)-N3,N3-dimethyl-pyridine-2,3-diamine] | 500 to 5000 nM

— patent publication US11505548B2, “Heterocyclic compounds and their use for treatment of helminthic infections and diseases” (Celgene Corporation, priority 2019, dated 2022)
